{"source": "patent US20250295679A1", "about": "“Compositions and Dosage Forms for Treatment of HPV Infection and HPV-Induced Neoplasia” (priority 2022, published 2025)", "key": {"HEK293 cells": {"tested_on": "HEK293 cells", "assay": "In vitro cytotoxicity, XTT, five days", "conditions": "read-out: HEK293 CC50; proliferating HEK293 cells, XTT, five days", "description": "Three compounds (Compound I, Compound II and Compound III) were solubilized at 40 mM in DMSO and stored at −20° C. The test compounds were evaluated using a high test concentration of 50 μM. Serial half-logarithmic dilutions were performed for the in vitro cytotoxicity assays.\nCells listed in Table 70 were enumerated by Trypan Blue Dye exclusion method and seeded in the interior wells of a 96 well flat bottom microtiter plate at 100 μL/well. Proliferating cells were incubated overnight at 37° C./5% CO2 to allow the cells to adhere to the plates at approximately 70% confluency. Tissue culture medium was removed and replaced with 100 μL/well of fresh medium. One-hundred microliters (100 μL) of each compound at six concentrations was transferred to the 96-well plate containing the cells in triplicate. Table 70 lists the cell line, type of cell, source of cell stock, base tissue culture medium supplemented with 10% fetal bovine serum, 2 mM L-glutamine, 100 U/mL penicillin and 100 μg/mL streptomycin, and microtiter plate seeding density.\nFollowing incubation at 37° C. in a 5% CO2 incubator for five days, the test plates were stained with the tetrazolium dye XTT (2,3-bis(2-methoxy-4-nitro-5-sulfopheny1)-5-[(phenylamino)carbonyl]-2H-tetrazolium hydroxide). XTT-tetrazolium was metabolized by the mitochondrial enzymes of metabolically active cells to a soluble formazan product. XTT solution was prepared daily as a stock of 1 mg/ml in RPM11640. Phenazine methosulfate (PMS) solution was prepared at 0.15 mg/ml in PBS and stored in the dark at −20° C. XTT/PMS stock was prepared immediately before use by adding 40 μL of PMS per ml of XTT solution. Fifty microliters of XTT/PMS were added to each well of the plate and the plate was reincubated for 4 hours at 37° C. Plates were sealed with adhesive plate sealers and shaken gently or inverted several times to mix the soluble formazan product and the plate was read spectrophotometrically at 450/650 nm with a Molecular Devices Vmax plate reader.\nMicrosoft Excel 2010 was used to analyze and graph the raw data. […] Raw data for cytotoxicity with a graphic representation of the data are provided in a printout summarizing the compound effect on cell viability.\nCompounds I, II, and III were evaluated for cytotoxicity to proliferating Hs27, HeLa, C33A and HEK293 cells by measuring cell viability using XTI tetrazolium dye following five days in culture (Table 71)."}, "[1]": {"assay": "Bulk (accelerated) stability, one week, HPLC and XRPD", "conditions": "initial chemical purity before storage; listed as Compound I monofumarate Pattern 1, monofumarate"}, "[2]": {"assay": "Tablet stability study (storage, purity by HPLC)", "type": "physicochemical", "description": "Tablets were prepared using the excipients and excipient ratios shown in the first column of the following tables. The tablets were then stored under the conditions indicated and periodically sampled and tested for purity by HPLC."}, "[3]": {"assay": "Behavior under compression, grinding and granulation simulation (XRPD)", "type": "physicochemical", "description": "About 10 mg of Compound I monofumarate Pattern 1 (Example 7) was compressed for 5 minutes at 10 MPa with a hydraulic press. XRPD characterization was performed to investigate the polymorphic behavior under compression.\nAbout 10 mg of Compound I monofumarate Pattern 1 (Example 7) was ground manually with a mortar and pestle for 5 min. Form transformation and degree of crystallinity was evaluated by XRPD.\nWater or ethanol was added drop wise to about 10 mg of Compound I monofumarate Pattern 1 (Example 7) until solids were wetted sufficiently. The samples were ground manually with a mortar and pestle for 3 minutes. Samples are dried under ambient condition for 10 min.\nForm transformation and degree of crystallinity were evaluated by XRPD."}, "[4]": {"assay": "Solubility in buffers, water and simulated vaginal fluid at 37° C.", "conditions": "37° C.", "description": "About 4 mg of Compound I Pattern 1 was added into 2 mL of buffer solution.\n(§1) Solubility was tested in five media, pH 3.0 citrate buffer, pH 4.5 acetate buffer, pH 6.8 phosphate buffer, water, simulated vaginal fluid (pH 4.2) at 37° C. for 0.5 h and 2 h.\nThe salt amount used is equivalent to 10 mg anhydrous free base. […] The obtained clear solutions were analyzed by pH meter for pH, and solubility was determined by observation.\nas §1"}, "[5]": {"assay": "Hygroscopicity by DVS at 25° C.", "type": "physicochemical", "description": "Hygroscopicity was investigated by DVS at 25° C., using the following method: • Method: 40-0-95-0-40% RH, dm/dt=0.002"}, "[6]": {"conditions": "ground manually with mortar and pestle for 5 min"}}}
{"compound": "CCOC(=O)C(C)NP(=O)(COCCn1cnc2c(OC)nc(N)nc21)OCc1ccccc1", "note": "(mixture of isomers) [AB12280]", "values": [{"measurement": "CC50", "setting": "HEK293 cells", "value": "< 160", "unit": "nM"}]}
{"compound": "CCOC(=O)[C@H](C)NP(=O)(COCCn1cnc2c(OC)nc(N)nc21)OCc1ccccc1.O=C(O)/C=C/C(=O)O", "note": "(mixture of isomers) [Compound I monofumarate, (±)-(2S)-ethyl-2-((((2-(2-amino-6-methoxy-9H-purin-9-yl)-ethoxy)-methyl)-(benzyloxy)-phosphoryl)-amino)-propionate monofumarate]", "values": [{"measurement": "HPLC purity, Initial", "setting": "[1]", "value": 98.6, "unit": "%"}, {"measurement": "Degradation of tablets compared with tablets produced from Compound I", "setting": "[2]; range of different formulations, purity by HPLC", "value": "degraded less"}, {"measurement": "Degradation of tablets", "setting": "[2]; within one month at 40° C. and 75% RH", "value": "far less degradation"}, {"measurement": "Form change by XRPD under compression", "setting": "[3]; compressed 5 minutes at 10 MPa", "value": "no form change was observed"}, {"measurement": "Crystallinity by XRPD after grinding", "setting": "[3]; [6]", "value": "crystallinity slightly decreased"}, {"measurement": "Form change by XRPD after grinding", "setting": "[3]; [6]", "value": "no form change was observed"}, {"measurement": "Form change by XRPD after granulation simulation", "setting": "[3]; wetted with water or ethanol, ground 3 minutes, dried", "value": "neither in ethanol, nor in water form change was observed"}, {"measurement": "pH at 2 hrs", "setting": "[4]; solution in pH 3.0 100 mM citrate buffer", "value": "(3.05)"}, {"measurement": "pH at 2 hrs", "setting": "[4]; solution in pH 4.5 50 mM acetate buffer", "value": "(4.36)"}, {"measurement": "pH at 2 hrs", "setting": "[4]; solution in pH 6.8 50 mM phosphate buffer", "value": "(6.49)"}, {"measurement": "pH at 2 hrs", "setting": "[4]; solution in simulated vaginal fluid (pH adjusted with 0.2N NaOH)", "value": "(5.39)"}, {"measurement": "pH at 2 hrs", "setting": "[4]; solution in water", "value": "(3.11)"}, {"measurement": "Desorption (%) Cycle 1", "setting": "[5]; 0% RH, DVS 25° C.", "value": 0.49, "unit": "%"}, {"measurement": "Desorption (%) Cycle 2", "setting": "[5]; 0% RH, DVS 25° C.", "value": 0.09, "unit": "%"}, {"measurement": "Sorption (%) Cycle 1", "setting": "[5]; 0% RH, DVS 25° C.", "value": 0.49, "unit": "%"}, {"measurement": "Sorption (%) Cycle 2", "setting": "[5]; 0% RH, DVS 25° C.", "value": 0.09, "unit": "%"}, {"measurement": "Desorption (%) Cycle 1", "setting": "[5]; 10% RH, DVS 25° C.", "value": 0.62, "unit": "%"}, {"measurement": "Desorption (%) Cycle 2", "setting": "[5]; 10% RH, DVS 25° C.", "value": 0.15, "unit": "%"}, {"measurement": "Sorption (%) Cycle 1", "setting": "[5]; 10% RH, DVS 25° C.", "value": 0.56, "unit": "%"}, {"measurement": "Sorption (%) Cycle 2", "setting": "[5]; 10% RH, DVS 25° C.", "value": 0.18, "unit": "%"}, {"measurement": "Desorption (%) Cycle 1", "setting": "[5]; 20% RH, DVS 25° C.", "value": 0.71, "unit": "%"}, {"measurement": "Desorption (%) Cycle 2", "setting": "[5]; 20% RH, DVS 25° C.", "value": 0.35, "unit": "%"}, {"measurement": "Sorption (%) Cycle 1", "setting": "[5]; 20% RH, DVS 25° C.", "value": 0.66, "unit": "%"}, {"measurement": "Sorption (%) Cycle 2", "setting": "[5]; 20% RH, DVS 25° C.", "value": 0.27, "unit": "%"}, {"measurement": "Desorption (%) Cycle 1", "setting": "[5]; 30% RH, DVS 25° C.", "value": 0.81, "unit": "%"}, {"measurement": "Desorption (%) Cycle 2", "setting": "[5]; 30% RH, DVS 25° C.", "value": 0.47, "unit": "%"}, {"measurement": "Sorption (%) Cycle 1", "setting": "[5]; 30% RH, DVS 25° C.", "value": 0.76, "unit": "%"}, {"measurement": "Sorption (%) Cycle 2", "setting": "[5]; 30% RH, DVS 25° C.", "value": 0.37, "unit": "%"}, {"measurement": "Desorption (%) Cycle 1", "setting": "[5]; 40% RH, DVS 25° C.", "value": 0.93, "unit": "%"}, {"measurement": "Desorption (%) Cycle 2", "setting": "[5]; 40% RH, DVS 25° C.", "value": 0.56, "unit": "%"}, {"measurement": "Sorption (%) Cycle 1", "setting": "[5]; 40% RH, DVS 25° C.", "value": 0.86, "unit": "%"}, {"measurement": "Sorption (%) Cycle 2", "setting": "[5]; 40% RH, DVS 25° C.", "value": 0.47, "unit": "%"}, {"measurement": "Desorption (%) Cycle 2", "setting": "[5]; 50% RH, DVS 25° C.", "value": 0.67, "unit": "%"}, {"measurement": "Sorption (%) Cycle 1", "setting": "[5]; 50% RH, DVS 25° C.", "value": 0.71, "unit": "%"}, {"measurement": "Desorption (%) Cycle 2", "setting": "[5]; 60% RH, DVS 25° C.", "value": 0.85, "unit": "%"}, {"measurement": "Sorption (%) Cycle 1", "setting": "[5]; 60% RH, DVS 25° C.", "value": 0.85, "unit": "%"}, {"measurement": "Desorption (%) Cycle 2", "setting": "[5]; 70% RH, DVS 25° C.", "value": 1.04, "unit": "%"}, {"measurement": "Sorption (%) Cycle 1", "setting": "[5]; 70% RH, DVS 25° C.", "value": 1.02, "unit": "%"}, {"measurement": "Desorption (%) Cycle 2", "setting": "[5]; 80% RH, DVS 25° C.", "value": 1.30, "unit": "%"}, {"measurement": "Sorption (%) Cycle 1", "setting": "[5]; 80% RH, DVS 25° C.", "value": 1.27, "unit": "%"}, {"measurement": "Desorption (%) Cycle 2", "setting": "[5]; 90% RH, DVS 25° C.", "value": 1.84, "unit": "%"}, {"measurement": "Sorption (%) Cycle 1", "setting": "[5]; 90% RH, DVS 25° C.", "value": 1.78, "unit": "%"}, {"measurement": "Desorption (%) Cycle 2", "setting": "[5]; 95% RH, DVS 25° C.", "value": 2.89, "unit": "%"}, {"measurement": "Sorption (%) Cycle 1", "setting": "[5]; 95% RH, DVS 25° C.", "value": 2.89, "unit": "%"}, {"measurement": "XRPD after DVS test", "setting": "[5]; after humidity cycle 40-0-95-0-40% RH, 25° C.", "value": "No form change,"}, {"measurement": "Water uptake", "setting": "[5]; up to / in 95% RH, DVS 25° C.", "value": "about 2.9%"}]}
